Laboratory results taken from patent publication US20250122219A1 (priority 2023, published 2025).

Assay: Cytotoxicity assay in MT-4 cells
Type: cell-based
Details: human; uninfected MT-4 cells, 5 days incubation, Cell Titer Glo; read-out: MT4 CC50
Description: Compounds were tested in a high-throughput 384-well assay format for their ability to inhibit the replication of HIV-1 (IIIB) in MT-4 cells. Compounds were serially diluted (1.3) in DMSO on 384-well polypropylene plates and further diluted 200-fold into complete RPMI media (10% FBS, 1% P/S) using the Biotek Micro Flow and Labcyte ECHO acoustic dispenser. Each plate contained up to 8 test compounds, with negative (No Drug Control) and 5 μM AZT positive controls. MT-4 cells were pre-infected with 10 μL of either RPMI (mock-infected) or a fresh 1:250 dilution of HIV-1 IIIB concentrated virus stock. Infected and uninfected MT-4 cells were further diluted in complete RPMI media and added to each plate using a Micro Flow dispenser. After 5 days incubation in a humidified and temperature controlled incubator (37° C.), Cell Titer Glo (Promega) was added to the assay plates and chemiluminescence read using an Envision plate-reader.
Assays were performed as above except uninfected MT-4 cells were added to each well containing test compound. In addition, […] puromycin was added to the last column of each assay plate to assess a base level of cytotoxicity.

Row | SMILES | CC50 at 5 days [µM]
1 | CC1=NO[C@@]2(CC[C@H](C)N3C[C@H]2n2cc(C(=O)NCc4ccc(F)cc4F)c(=O)c(OCOC(=O)OCCCCCCC(C)C)c2C3=O)C1 [Example 209, (((3′S,5S,7′R)-10′-((2,4-difluorobenzyl)carbamoyl)-3,3′-dimethyl-1′,11′-dioxo-1′,4′,5′,11′-tetrahydro-3′H,4H,7′H-spiro[isoxazole-5,6′-[2,7]methanopyrido[1,2-a][1,4]diazonin]-12′-yl)oxy)methyl (7-methyloctyl) carbonate] | ≥ 50
2 | CC1=NO[C@@]2(CC[C@H](C)N3C[C@H]2n2cc(C(=O)NCc4ccc(F)cc4F)c(=O)c(OC(=O)OCCCCCCC(C)C)c2C3=O)C1 [Example 158, (3′S,5S,7′R)-10′-((2,4-difluorobenzyl)carbamoyl)-3,3′-dimethyl-1′,11′-dioxo-1′,4′,5′,11′-tetrahydro-3′H,4H,7′H-spiro[isoxazole-5,6′-[2,7]methanopyrido[1,2-a][1,4]diazonin]-12′-yl (7-methyloctyl) carbonate] | 16.8
3 | COC1=NO[C@@]2(CC[C@H](C)N3C[C@H]2n2cc(C(=O)NCc4ccc(F)cc4F)c(=O)c(OC(=O)C(C)C)c2C3=O)C1 [Example 48, (3′S,5S,7′R)-10′-((2,4-difluorobenzyl)carbamoyl)-3-methoxy-3′-methyl-1′,11′-dioxo-1′,4′,5′,11′-tetrahydro-3′H,4H,7′H-spiro[isoxazole-5,6′-[2,7]methanopyrido[1,2-a][1,4]diazonin]-12′-yl isobutyrate] | 22.4
4 | COC(=O)N[C@@H](C)C(=O)Oc1c2n(cc(C(=O)NCc3ccc(F)cc3F)c1=O)[C@@H]1CN(C2=O)[C@@H](C)CC[C@]12CC(OC)=NO2 [Example 78] | 16.2
5 | CCCOC(=O)Oc1c2n(cc(C(=O)NCc3ccc(F)cc3F)c1=O)[C@@H]1CN(C2=O)[C@@H](C)CC[C@]12CC(OC)=NO2 [Example 126, (3′S,5S,7′R)-10′-((2,4-difluorobenzyl)carbamoyl)-3-methoxy-3′-methyl-1′,11′-dioxo-1′,4′,5′,11′-tetrahydro-3′H,4H,7′H-spiro[isoxazole-5,6′-[2,7]methanopyrido[1,2-a][1,4]diazonin]-12′-yl propyl carbonate] | 21.9
6 | CCCCCCCCCCCCCCOC(=O)OCOc1c2n(cc(C(=O)NCc3ccc(F)cc3F)c1=O)[C@@H]1CN(C2=O)[C@@H](C)CC[C@]12CC(OC)=NO2 [Example 193, (((3′S,5S,7′R)-10′-((2,4-difluorobenzyl)carbamoyl)-3-methoxy-3′-methyl-1′,11′-dioxo-1′,4′,5′,11′-tetrahydro-3′H,4H,7′H-spiro[isoxazole-5,6′-[2,7]methanopyrido[1,2-a][1,4]diazonin]-12′-yl)oxy)methyl tetradecyl carbonate] | ≥ 50
7 | CCC(C)C(=O)Oc1c2n(cc(C(=O)NCc3ccc(F)cc3F)c1=O)[C@@H]1CN(C2=O)[C@@H](C)CC[C@]12CC(OC)=NO2 (stereo partly drawn) [Example 50, (3′S,5S,7′R)-10′-((2,4-difluorobenzyl)carbamoyl)-3-methoxy-3′-methyl-1′,11′-dioxo-1′,4′,5′,11′-tetrahydro-3′H,4H,7′H-spiro[isoxazole-5,6′-[2,7]methanopyrido[1,2-a][1,4]diazonin]-12′-yl 2-methylbutanoate] | 21.7
8 | COC(=O)N[C@@H](C)C(=O)Oc1c2n(cc(C(=O)NCc3ccc(F)cc3F)c1=O)[C@@H]1CN(C2=O)[C@@H](C)CC[C@]12CC(C)=NO2 [Example 79] | 19.5
9 | CCCCCCCCCCCCCCOC(=O)OCOc1c2n(cc(C(=O)NCc3ccc(F)cc3F)c1=O)[C@@H]1CN(C2=O)[C@@H](C)CC[C@]12CC(C)=NO2 [Example 192, (((3′S,5S,7′R)-10′-((2,4-difluorobenzyl)carbamoyl)-3,3′-dimethyl-1′,11′-dioxo-1′,4′,5′,11′-tetrahydro-3′H,4H,7′H-spiro[isoxazole-5,6′-[2,7]methanopyrido[1,2-a][1,4]diazonin]-12′-yl)oxy)methyl tetradecyl carbonate] | ≥ 50
10 | CO[C@H](C)COC(=O)OCOc1c2n(cc(C(=O)NCc3ccc(F)cc3F)c1=O)[C@@H]1CN(C2=O)[C@@H](C)CC[C@]12CC(C)=NO2 [Example 217, (((3′S,5S,7′R)-10′-((2,4-difluorobenzyl)carbamoyl)-3,3′-dimethyl-1′,11′-dioxo-1′,4′,5′,11′-tetrahydro-3′H,4H,7′H-spiro[isoxazole-5,6′-[2,7]methanopyrido[1,2-a][1,4]diazonin]-12′-yl)oxy)methyl ((R)-2-methoxypropyl) carbonate] | 24.6
11 | CCCOC(=O)Oc1c2n(cc(C(=O)NCc3ccc(F)cc3F)c1=O)[C@@H]1CN(C2=O)[C@@H](C)CC[C@]12CC(C)=NO2 [Example 125, (3′S,5S,7′R)-10′-((2,4-difluorobenzyl)carbamoyl)-3,3′-dimethyl-1′,11′-dioxo-1′,4′,5′,11′-tetrahydro-3′H,4H,7′H-spiro[isoxazole-5,6′-[2,7]methanopyrido[1,2-a][1,4]diazonin]-12′-yl propyl carbonate] | 18.5
12 | COC[C@H](C)OC(=O)OCOc1c2n(cc(C(=O)NCc3ccc(F)cc3F)c1=O)[C@@H]1CN(C2=O)[C@@H](C)CC[C@]12CC(OC)=NO2 [Example 216, (((3′S,5S,7′R)-10′-((2,4-difluorobenzyl)carbamoyl)-3-methoxy-3′-methyl-1′,11′-dioxo-1′,4′,5′,11′-tetrahydro-3′H,4H,7′H-spiro[isoxazole-5,6′-[2,7]methanopyrido[1,2-a][1,4]diazonin]-12′-yl)oxy)methyl ((S)-1-methoxypropan-2-yl) carbonate] | ≥ 50
13 | CC1=NO[C@@]2(CC[C@H](C)N3C[C@H]2n2cc(C(=O)NCc4ccc(F)cc4F)c(=O)c(OC(=O)CCCC(=O)O)c2C3=O)C1 [Example 72, 5-(((3′S,5S,7′R)-10′-((2,4-difluorobenzyl)carbamoyl)-3,3′-dimethyl-1′,11′-dioxo-1′,4′,5′,11′-tetrahydro-3′H,4H,7′H-spiro[isoxazole-5,6′-[2,7]methanopyrido[1,2-a][1,4]diazonin]-12′-yl)oxy)-5-oxopentanoic acid] | 10.8
14 | COC1=NO[C@@]2(CC[C@H](C)N3C[C@H]2n2cc(C(=O)NCc4ccc(F)cc4F)c(=O)c(OC(=O)CCCCCC(=O)O)c2C3=O)C1 [Example 74, 7-(((3′S,5S,7′R)-10′-((2,4-difluorobenzyl)carbamoyl)-3-methoxy-3′-methyl-1′,11′-dioxo-1′,4′,5′,11′-tetrahydro-3′H,4H,7′H-spiro[isoxazole-5,6′-[2,7]methanopyrido[1,2-a][1,4]diazonin]-12′-yl)oxy)-7-oxoheptanoic acid] | 26.3
15 | CC1=NO[C@@]2(CC[C@H](C)N3C[C@H]2n2cc(C(=O)NCc4ccc(F)cc4F)c(=O)c(OC(=O)C(C)C)c2C3=O)C1 [Example 49, (3′S,5S,7′R)-10′-((2,4-difluorobenzyl)carbamoyl)-3,3′-dimethyl-1′,11′-dioxo-1′,4′,5′,11′-tetrahydro-3′H,4H,7′H-spiro[isoxazole-5,6′-[2,7]methanopyrido[1,2-a][1,4]diazonin]-12′-yl isobutyrate] | 15.1
